Assay results from the supplement of paper PMC11061612.

Tests used:
Assay in all cases: combination Emax (second highest fraction inhibited in the dose matrix, 72 h); higher = more inhibition; extreme values may be limits of the assay
[1] = system: DoTc2-4510 (Cervical Carcinoma)
In short: (§1)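 After 24 hours at 37°C and 5% CO2 in 1536-well plates, cells in DMEM/F12 or RPMI plus 10% FBS received two-drug dose matrices for 72 hours. Viability came from CellTiter-Glo 2.0 luminescence and was scaled as inhibition, anchored at 0 by vehicle wells and at 1 by blank wells. Combination Emax is taken as the second-highest inhibition in the matrix, and Bliss excess as the observed combination effect less EA + EB − EA·EB, with EA and EB the single-agent effects.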

[2] = system: LB831-BLC (Bladder Carcinoma)
In short: as §1

[3] = system: KYSE-520 (Esophageal Squamous Cell Carcinoma)
In short: as §1

[4] = system: OVCA420 (Ovarian Carcinoma)
In short: as §1

[5] = system: NCI-H82 (Small Cell Lung Carcinoma)
In short: as §1

KELLY (Neuroblastoma) = system: KELLY (Neuroblastoma)
In short: as §1

[6] = system: CaR-1 (Colorectal Carcinoma)
In short: as §1

[7] = system: RC-K8 (B-Cell Non-Hodgkin's Lymphoma)
In short: as §1

[8] = system: HCC1806 (Breast Carcinoma)
In short: as §1

[9] = system: CAL-148 (Breast Carcinoma)
In short: as §1

[10] = system: LNCaP-Clone-FGC (Prostate Carcinoma)
In short: as §1

[11] = system: TE-9 (Esophageal Squamous Cell Carcinoma)
In short: as §1

Row | SMILES | combination Emax [1] | combination Emax [2] | combination Emax [3] | combination Emax [4] | combination Emax [5] | combination Emax (KELLY (Neuroblastoma)) | combination Emax [6] | combination Emax [7] | combination Emax [8] | combination Emax [9] | combination Emax [10] | combination Emax [11]
1 | NC1(C(=O)N[C@@H](CCO)c2ccc(Cl)cc2)CCN(c2ncnc3[nH]ccc23)CC1 [Capivasertib] + COc1nnc2ccc(N3CCC(c4ccc(OCCN5CCN(C)C(=O)[C@H]5C)cc4)CC3)nn12 [AZD5153] (first compound max 10 µM, 7x7, partner max 1 µM) | 0.317 | 0.608 | 0.668 | 0.762 | 0.885 | 0.336 | 0.648 | 0.761 | 0.556 | 1 | 0.993 | 0.354
2 | NC1(C(=O)N[C@@H](CCO)c2ccc(Cl)cc2)CCN(c2ncnc3[nH]ccc23)CC1 [Capivasertib] + C[C@@H]1COCCN1C2=NC(=NC(=C2)C3(CC3)[S@](=N)(=O)C)C4=C5C=CNC5=NC=C4 [AZD6738] (first compound max 10 µM, 7x7, partner max 10 µM) | 0.45 | 0.539 | 0.678 | 0.516 | 0.967 | 0.962 | 0.601 | 0.775 | 0.947 | 0.986 | 0.989 | 0.232
3 | NC1(C(=O)N[C@@H](CCO)c2ccc(Cl)cc2)CCN(c2ncnc3[nH]ccc23)CC1 [Capivasertib] + Cn1cnc2c(F)c(Nc3ccc(Br)cc3Cl)c(C(=O)NOCCO)cc21 [Selumetinib] (first compound max 10 µM, 7x7, partner max 10 µM) | 0.408 | 0.545 | 0.583 | 0.651 | 0.903 | 0.44 | 0.564 | 0.367 | 0.595 | 0.981 | 0.969 | 0.398
4 | Cc1nc(Nc2ncc(C(=O)Nc3c(C)cccc3Cl)s2)cc(N2CCN(CCO)CC2)n1 [Dasatinib] + CC(=O)Nc1cccc(-n2c(=O)n(C3CC3)c(=O)c3c(Nc4ccc(I)cc4F)n(C)c(=O)c(C)c32)c1 [Trametinib] (first compound max 2 µM, 7x7, partner max 1 µM) | 0.469 | 0.493 | 0.784 | 0.903 | 0.203 | 0.556 | 0.57 | 0.124 | 0.624 | 0.254 | 0.15 | 0.271
5 | COc1cc2ncnc(Nc3ccc(F)c(Cl)c3)c2cc1OCCCN1CCOCC1 [Gefitinib] + CC(C)n1c(=O)n(C)c2cnc3cc(F)c(-c4ccc(OCCCN5CCCCC5)nc4)cc3c21 [AZD1390] (first compound max 10 µM, 7x7, partner max 0.3 µM) | 0.297 | 0.202 | 0.556 | 0.646 | 0.386 | 0.189 | 0.227 | 0.105 | 0.436 | 0.142 | 0.089 | 0.0944
6 | CS(=O)(=O)CCNCc1ccc(-c2ccc3ncnc(Nc4ccc(OCc5cccc(F)c5)c(Cl)c4)c3c2)o1 [Lapatinib] + C[C@@H](Oc1cc(-c2cnn(C3CCNCC3)c2)cnc1N)c1c(Cl)ccc(F)c1Cl [Crizotinib] (first compound max 10 µM, 7x7, partner max 10 µM) | 0.942 | 0.826 | 0.945 | 0.964 | 0.936 | 0.97 | 0.858 | 0.622 | 0.95 | 0.771 | 0.804 | 0.552
7 | CC(=O)c1c(C)c2cnc(Nc3ccc(N4CCNCC4)cn3)nc2n(C2CCCC2)c1=O [Palbociclib] + CC1(C)CCC(CN2CCN(c3ccc(C(=O)NS(=O)(=O)c4ccc(NCC5CCOCC5)c([N+](=O)[O-])c4)c(Oc4cnc5[nH]ccc5c4)c3)CC2)=C(c2ccc(Cl)cc2)C1 [Venetoclax] (first compound max 10 µM, 7x7, partner max 1 µM) | 0.0297 | 0.108 | 0.114 | 0.0625 | 0.634 | 0.52 | 0.0978 | 0.506 | 0.268 | 0.161 | 0.405 | 0.114
8 | CC(=O)c1c(C)c2cnc(Nc3ccc(N4CCNCC4)cn3)nc2n(C2CCCC2)c1=O [Palbociclib] + Cc1c2c(nn1C)CSCc1cc(n(C)n1)CSc1cc(c3ccccc3c1)OCCCc1c(C(=O)O)n(C)c3c-2c(Cl)ccc13 [AZD5991] (first compound max 10 µM, 7x7, partner max 1 µM) | 0.215 | 0.275 | 0.462 | 0.265 | 0.98 | 0.897 | 0.229 | 0.316 | 0.383 | 0.376 | 0.5 | 0.14
